Data from ChEMBL document CHEMBL1201862, “PubChem BioAssay data set” (2004).
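Five concentrations, 48 hours, 96-well plates. GI50 is the concentration that inhibits growth by half.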 The source made the active and inactive calls. Rule as the data show it: active = GI50 up to about 1.1 µM and inactive = higher.

What was measured:
Assay in all cases: inhibition of tumour cell growth, NCI panel, 48 h
[1] = test system: COLO 205
[2] = test system: A549
[3] = test system: TK-10
[4] = test system: PC-3
[5] = test system: SF-268
[6] = test system: SK-MEL-2
[7] = test system: SK-OV-3
[8] = test system: UACC-257
[9] = test system: HOP-62
[10] = test system: SW-620
[11] = test system: T47D
[12] = test system: SK-MEL-5
[13] = test system: MDA-N
[14] = test system: HL-60
[15] = test system: SNB-75
[16] = test system: MDA-MB-231
[17] = test system: RPMI-8226
[18] = test system: MDA-MB-435
[19] = test system: IGROV-1
[20] = test system: NCI-H522

Measured: GI50

O=C(Nc1ccccc1)OCCN=c1c2ccccc2ccc2ccccc12
inactive: [1] 21 µM | [2] 19.9 µM | [3] 31.4 µM | [4] 20.9 µM | [5] 34.8 µM | [6] 11.3 µM | [7] 32.1 µM | [8] 15.8 µM | [9] 28.2 µM | [10] 31.9 µM | [11] 13.1 µM | [12] 14.1 µM | [13] 18.5 µM | [14] 17 µM | [15] 26 µM | [16] 24.9 µM | [17] 15.5 µM | [18] 27.6 µM | [19] 27.9 µM

Cc1cn(CCCCOC(=O)NC(CCCNC(=N)N)C(=O)O)c(=O)[nH]c1=O (stereo not drawn)
inactive: [1] > 100 µM | [2] > 100 µM | [3] > 100 µM | [4] > 100 µM | [5] > 100 µM | [6] > 100 µM | [7] > 100 µM | [8] > 100 µM | [9] > 100 µM | [10] > 100 µM | [11] > 100 µM | [13] > 100 µM | [14] > 100 µM | [15] > 100 µM | [16] > 100 µM | [17] > 100 µM | [18] > 100 µM | [19] > 100 µM

Cn1/c(=N\N=C(\CNCCO)[C@@H](O)[C@@H]2OC(c3ccccc3)OC[C@H]2O)sc2ccccc21 (stereo partly drawn)
inactive: [20] 17.6 µM | [1] 15.5 µM | [2] 15.8 µM | [3] 18.5 µM | [4] 16.6 µM | [5] 15.5 µM | [6] 17.7 µM | [7] 18.4 µM | [8] 19.6 µM | [9] 17.8 µM | [10] 18 µM | [11] 20.1 µM | [12] 14.9 µM | [13] 17.6 µM | [15] 16 µM | [16] 15.2 µM | [18] 17.9 µM | [19] 15.8 µM

Cc1cn(C(=O)NC23CC4CC(CC(C4)C2)C3)c(=O)[nH]c1=O
inactive: [1] 24 µM | [2] 35.9 µM | [3] 32.8 µM | [4] 35 µM | [5] 37.5 µM | [6] 19.9 µM | [7] 34.4 µM | [8] 45.1 µM | [9] > 100 µM | [10] 40.6 µM | [11] 31.3 µM | [12] 38.3 µM | [13] 13.2 µM | [14] 26.4 µM | [15] 31.7 µM | [16] 24.7 µM | [17] 25.5 µM | [18] 61.4 µM
